According to the NIST ThermoML archive (doi:10.1021/je049544x):

Key:
[1] = Liquid; for mass density / speed of sound: 298.15 K, 101.3 kPa; for speed of sound: Sing-around technique in a fixed-path interferometer
[2] = refractive index (Na D-line) (dimensionless); conditions: 298.15 K; 101.33 kPa; Liquid; Standard Abbe refractometry
[3] = refractive index (Na D-line) (dimensionless); xn = mol fraction of the nth substance listed; conditions: 298.15 K, 101.3 kPa, Liquid, Standard Abbe refractometry
[4] = xn = mol fraction of the nth substance listed; conditions: 298.15 K, 101.3 kPa, Liquid; for speed of sound: Sing-around technique in a fixed-path interferometer

CO [methanol]
Conditions	mass density [kg/m3]	refractive index	speed of sound [m/s]
[1]	786.56	–	1101.8
[2]	–	1.32634	–

Conditions	vapor or sublimation pressure [kPa]
[1], 337.9 K	101.3

CO [methanol] + CCOC(=O)OCC
x1 = 1
Conditions	mass density [kg/m3]	refractive index	speed of sound [m/s]
[3]	–	1.32634	–
[4]	786.56	–	1101.8

C=COC(C)=O [vinyl acetate] + CCOC(=O)OCC
Conditions	mass density, [4] [kg/m3]	refractive index, [3]	speed of sound, [4] [m/s]
x1 = 0.043	967.68	1.3826	1174.2
x1 = 0.105	965.65	1.3832	1171.2
x1 = 0.17	963.45	1.38373	1167.9
x1 = 0.193	962.74	1.38396	1166.9
x1 = 0.254	960.55	1.38458	1163.6
x1 = 0.299	958.92	1.385	1161.2
x1 = 0.353	956.87	1.3855	1158.2
x1 = 0.407	954.79	1.38602	1155.2
x1 = 0.458	952.74	1.38655	1152.3
x1 = 0.507	950.71	1.38706	1149.3
x1 = 0.556	948.6	1.38757	1146.4
x1 = 0.598	946.73	1.38804	1143.7
x1 = 0.65	944.3	1.38859	1140.4
x1 = 0.697	942.05	1.38917	1137.2
x1 = 0.744	939.73	1.38968	1134.1
x1 = 0.803	936.72	1.39031	1130.1
x1 = 0.85	934.22	1.39087	1126.7
x1 = 0.901	931.44	1.39143	1123.1
x1 = 0.946	928.87	1.39197	1119.8
x1 = 1	925.59	1.39253	1115.6

C=COC(C)=O [vinyl acetate]
Conditions	mass density [kg/m3]	refractive index	speed of sound [m/s]
[1]	925.59	–	1115.6
[2]	–	1.39253	–

Conditions	vapor or sublimation pressure [kPa]
[1], 346.1 K	101.3

CCOC(=O)OCC [diethyl carbonate]
Conditions	mass density [kg/m3]	refractive index	speed of sound [m/s]
[1]	969	–	1176.1
[2]	–	1.38221	–

Conditions	vapor or sublimation pressure [kPa]
[1], 399.6 K	101.3

CCOC(=O)OCC [diethyl carbonate] + C=COC(C)=O
x2 = 0
Conditions	mass density [kg/m3]	refractive index	speed of sound [m/s]
[3]	–	1.38221	–
[4]	969	–	1176.1

CCOC(=O)OCC [diethyl carbonate] + CO
Conditions	mass density, [4] [kg/m3]	refractive index, [3]	speed of sound, [4] [m/s]
x2 = 0	969	1.38221	1176.1
x2 = 0.063	964.93	1.38098	1174.8
x2 = 0.098	962.48	1.38026	1174.1
x2 = 0.159	958.15	1.37901	1171.5
x2 = 0.192	955.62	1.37825	1169.9
x2 = 0.251	950.7	1.3769	1167
x2 = 0.302	946.14	1.37563	1164.3
x2 = 0.371	939.23	1.37345	1160.6
x2 = 0.415	934.4	1.37205	1158.1
x2 = 0.453	929.92	1.3705	1155.9
x2 = 0.49	925.16	1.36915	1153.8
x2 = 0.543	917.68	1.367	1150.2
x2 = 0.592	910.04	1.36457	1146.9
x2 = 0.655	898.92	1.36118	1142.2
x2 = 0.69	892	1.359	1139.5
x2 = 0.75	878.54	1.35486	1134.1
x2 = 0.8	865.37	1.3509	1129.2
x2 = 0.848	850.75	1.34641	1123.8
x2 = 0.897	833.8	1.34105	1117.8
x2 = 0.948	812.41	1.3344	1110.4
